# Experimental data reported in patent US20260231945A1, “NEMATICIDAL COMPOUNDS, THEIR COMPOSITION AND USE THEREOF” (priority 2023, published 2026).
# System: not listed separately
# Assay: Stability studies: storage at room temperature and under accelerated storage condition (ATS), purity estimated by HPLC
# Format: physicochemical
# Settings: Day 14; 25° C. ± 2° C.; properly packed material
# Source text: The properly packed material was subjected to the conditions mentioned in the table below (Table 5).
row,"purity estimated by HPLC, Day 14 Condition 25° C. ± 2° C.",SMILES
1,98.80,"N=C(N)NCCC[C@H](/N=C/C=C/c1c(O)cccc1F)C(=O)O [Example 3, (E)-N^2-[(2E)-3-(6-fluoro-2-hydroxyphenyl)prop-2-en-1-ylidene]-L-arginine]"
2,99.59,"N=C(N)NCCC[C@H](/N=C/C=C/c1ccccc1)C(=O)O [Example 9, (E)-N^2-[(2E)-3-phenylprop-2-en-1-ylidene]-L-arginine]"

# Same assay, conditions: Day 14; 54° C. ± 2° C. (accelerated storage); properly packed material
row,"purity estimated by HPLC, Day 14 Condition 54° C. ± 2° C.",SMILES
1,98.79,"N=C(N)NCCC[C@H](/N=C/C=C/c1c(O)cccc1F)C(=O)O [Example 3, (E)-N^2-[(2E)-3-(6-fluoro-2-hydroxyphenyl)prop-2-en-1-ylidene]-L-arginine]"
2,99.64,"N=C(N)NCCC[C@H](/N=C/C=C/c1ccccc1)C(=O)O [Example 9, (E)-N^2-[(2E)-3-phenylprop-2-en-1-ylidene]-L-arginine]"

# Same assay, conditions: Day Zero; 25° C. ± 2° C.; properly packed material
row,"purity estimated by HPLC, Day Zero Condition 25° C. ± 2° C.",SMILES
1,99.23,"N=C(N)NCCC[C@H](/N=C/C=C/c1c(O)cccc1F)C(=O)O [Example 3, (E)-N^2-[(2E)-3-(6-fluoro-2-hydroxyphenyl)prop-2-en-1-ylidene]-L-arginine]"
2,99.60,"N=C(N)NCCC[C@H](/N=C/C=C/c1ccccc1)C(=O)O [Example 9, (E)-N^2-[(2E)-3-phenylprop-2-en-1-ylidene]-L-arginine]"

# Same assay, conditions: Day Zero; 54° C. ± 2° C. (accelerated storage); properly packed material
row,"purity estimated by HPLC, Day Zero Condition 54° C. ± 2° C.",SMILES
1,99.10,"N=C(N)NCCC[C@H](/N=C/C=C/c1c(O)cccc1F)C(=O)O [Example 3, (E)-N^2-[(2E)-3-(6-fluoro-2-hydroxyphenyl)prop-2-en-1-ylidene]-L-arginine]"
2,99.63,"N=C(N)NCCC[C@H](/N=C/C=C/c1ccccc1)C(=O)O [Example 9, (E)-N^2-[(2E)-3-phenylprop-2-en-1-ylidene]-L-arginine]"

# System: Root-knot nematodes Meloidogyne spp. juveniles (J2)
# Assay: whole plant or invertebrate
# Format: in vivo
# Settings: 500 ppm; 70-100 J2 juveniles; 22±2° C., 70±5% RH; dead/inactive counted at 24, 48, 72 and 96 hours (time of rating not stated)
# Protocol: The compound to be tested (4 mg) was dissolved in 40 μl of DMSO to make 100,000 PPM concentration stock solution. […] The nematode suspension (250 μl) having 70-100 juveniles (J2) of Root-knot nematodes Meloidogyne spp. pipetted out to each cell of 24 well bioassay plate. Sterile water (1 ml) was pipetted out in fresh 2.5 ml Eppendorf micro-centrifuge tubes. The desired concentration (500 ppm) of the compound was prepared by adding stock solution in 2.5 ml Eppendorf micro-centrifuge tubes. For each treatment 4 replications were maintained. The bioassay plates were incubated at 22±2° C. and 70±5% RH in humidity chambers.
row,SMILES,% Mortality Rating
1,N=C(N)NCCCC(N=CC=Cc1ccc(C(F)(F)F)cc1)C(=O)O (stereo not shown) [Example 28],B (50-69)
2,CC(C=NC(CCCNC(=N)N)C(=O)O)=Cc1ccc(C(F)(F)F)cc1 (stereo not shown) [Example 29],B (50-69)
3,N=C(N)NCCCC(N=CC=Cc1ccccc1C(F)(F)F)C(=O)O (stereo not shown) [Example 30],B (50-69)
4,CCC(C=NC(CCCNC(=N)N)C(=O)O)=Cc1ccccc1OC(F)(F)F (stereo not shown) [Example 31],C (0 to 49)
5,CCOc1ccc(C=CC=NC(CCCNC(=N)N)C(=O)O)cc1 (stereo not shown) [Example 33],C (0 to 49)
6,C=CCc1ccc(C=CC=NC(CCCNC(=N)N)C(=O)O)cc1 (stereo not shown) [Example 34],B (50-69)
7,C=CCc1ccc(C=CC=NC(CCCNC(=N)N)C(=O)O)c(O)c1 (stereo not shown) [Example 35],B (50-69)
8,C=CCc1cccc(C=CC=NC(CCCNC(=N)N)C(=O)O)c1O (stereo not shown) [Example 36],A (70-100)
9,C=CCc1cccc(C=CC=NC(CCCNC(=N)N)C(=O)O)c1OC (stereo not shown) [Example 37],B (50-69)
10,C=CCc1ccc(C=CC=NC(CCCNC(=N)N)C(=O)O)c(OC)c1 (stereo not shown) [Example 38],B (50-69)
11,N=C(N)NCCCC(N=CC=Cc1ccccn1)C(=O)O (stereo not shown) [Example 40],A (70-100)
12,N=C(N)NCCCC(N=CC=Cc1ccncc1)C(=O)O (stereo not shown) [Example 42],A (70-100)
13,N=C(N)NCCCC(N=CC=Cc1ccncn1)C(=O)O (stereo not shown) [Example 43],A (70-100)
14,N=C(N)NCCCC(N=CC=Cc1cnccn1)C(=O)O (stereo not shown) [Example 44],B (50-69)
15,N=C(N)NCCCC(N=CC=Cc1cccnn1)C(=O)O (stereo not shown) [Example 45],C (0 to 49)
16,CC(C=NC(CCCNC(=N)N)C(=O)O)=Cc1cccs1 (stereo not shown) [Example 46],B (50-69)
17,CCC(C=NC(CCCNC(=N)N)C(=O)O)=Cc1cccs1 (stereo not shown) [Example 47],B (50-69)

row,SMILES,% Mortality Rating
1,CCC(C=NC(CCCNC(=N)N)C(=O)O)=Cc1cscn1 (stereo not shown) [Example 48],B (50-69)
2,N=C(N)NCCCC(N=CC=Cc1ccn[nH]1)C(=O)O (stereo not shown) [Example 50],B (50-69)
3,N=C(N)NCCCC(N=CC=Cc1cnc[nH]1)C(=O)O (stereo not shown) [Example 51],B (50-69)
4,N=C(N)NCCCC(N=CC=Cc1ncc[nH]1)C(=O)O (stereo not shown) [Example 52],B (50-69)
5,N=C(N)NCCCC(N=CC=Cc1ncco1)C(=O)O (stereo not shown) [Example 53],C (0 to 49)
6,N=C(N)NCCCC(N=CC=Cc1ccc[nH]1)C(=O)O (stereo not shown) [Example 54],B (50-69)
7,N=C(N)NCCCC(N=CC=Cc1nc2ccccc2[nH]1)C(=O)O (stereo not shown) [Example 55],C (0 to 49)
8,N=C(N)NCCCC(N=CC=Cc1ccc2scnc2c1)C(=O)O (stereo not shown) [Example 57],A (70-100)
9,N=C(N)NCCCC(N=CC=Cc1ccc2cc[nH]c2c1)C(=O)O (stereo not shown) [Example 58],A (70-100)
10,N=C(N)NCCCC(N=CC=Cc1ccc2c[nH]cc2c1)C(=O)O (stereo not shown) [Example 59],A (70-100)
11,N=C(N)NCCCC(N=CC=Cc1ccc2c[nH]cc2c1Cl)C(=O)O (stereo not shown) [Example 60],B (50-69)
12,COc1c(C=CC=NC(CCCNC(=N)N)C(=O)O)ccc2[nH]cnc12 (stereo not shown) [Example 61],C (0 to 49)
13,N=C(N)NCCCC(N=CC=Cc1ccc2ccoc2c1)C(=O)O (stereo not shown) [Example 62],B (50-69)
14,N=C(N)NCCCC(N=CC=Cc1cc2ccccc2o1)C(=O)O (stereo not shown) [Example 63],A (70-100)
15,N=C(N)NCCCC(N=CC=Cc1coc2ccccc12)C(=O)O (stereo not shown) [Example 64],B (50-69)
16,N=C(N)NCCCC(N=CC=Cc1nc2ccccc2o1)C(=O)O (stereo not shown) [Example 65],B (50-69)

# Same assay, conditions: Meloidogyne, 70-100 J2 juveniles, 22±2° C., 70±5% RH, dead/inactive counted at 24, 48, 72 and 96 hours (time of rating not stated)
row,SMILES,mortality at 500 ppm [%]
1,"N=C(N)NCCC[C@H](/N=C/C=C/c1ccccc1O)C(=O)O [Example 1, (E)-N^2-[(2E)-3-(2-hydroxyphenyl)prop-2-en-1-ylidene]-L-arginine]",70 to 100
2,"N=C(N)NCCC[C@H](/N=C/C=C/c1ccc(F)cc1O)C(=O)O [Example 2, (E)-N^2-[(2E)-3-(4-fluoro-2-hydroxyphenyl)prop-2-en-1-ylidene]-L-arginine]",50 to 69
3,"N=C(N)NCCC[C@H](/N=C/C=C/c1c(O)cccc1F)C(=O)O [Example 3, (E)-N^2-[(2E)-3-(6-fluoro-2-hydroxyphenyl)prop-2-en-1-ylidene]-L-arginine]",50 to 69
4,"N=C(N)NCCC[C@H](/N=C/C=C/c1ccc(Cl)cc1O)C(=O)O [Example 4, (E)-N^2-[(2E)-3-(4-chloro-2-hydroxyphenyl)prop-2-en-1-ylidene]-L-arginine]",50 to 69
5,"COc1ccc(O)c(/C=C/C=N/[C@@H](CCCNC(=N)N)C(=O)O)c1 [Example 5, (E)-N^2-[(2E)-3-(2-hydroxy-5-methoxyphenyl)prop-2-en-1-ylidene]-L-arginine]",50 to 69
6,"COc1ccccc1/C=C/C=N/[C@@H](CCCNC(=N)N)C(=O)O [Example 6, (E)-N^2-[(2E)-3-(2-methoxyphenyl)prop-2-en-1-ylidene]-L-arginine]",70 to 100
7,"COc1ccc(/C=C/C=N/[C@@H](CCCNC(=N)N)C(=O)O)cc1 [Example 7, (E)-N^2-[(2E)-3-(4-methoxyphenyl)prop-2-en-1-ylidene]-L-arginine]",70 to 100
8,"COc1cc(/C=C/C=N/[C@@H](CCCNC(=N)N)C(=O)O)ccc1OC(C)=O [Example 8, (E)-N^2-{(2E)-3-[4-(acetyloxy)-3-methoxyphenyl]prop-2-en-1-ylidene}-L-arginine]",0 to 49
9,"N=C(N)NCCC[C@H](/N=C/C=C/c1ccccc1)C(=O)O [Example 9, (E)-N^2-[(2E)-3-phenylprop-2-en-1-ylidene]-L-arginine]",70 to 100
10,"CC(/C=N/[C@@H](CCCNC(=N)N)C(=O)O)=C\c1ccccc1 [Example 10, (E)-N^2-[(2E)-2-methyl-3-phenylprop-2-en-1-ylidene]-L-arginine]",70 to 100
11,"CCC(/C=N/[C@@H](CCCNC(=N)N)C(=O)O)=C\c1ccccc1 [Example 11, (E)-N^2-[(2E)-2-benzylidenebutylidene]-L-arginine]",70 to 100
12,"CCCCCC(/C=N/[C@@H](CCCNC(=N)N)C(=O)O)=C\c1ccccc1 [Example 12, (E)-N^2-[(2E)-2-benzylideneheptylidene]-L-arginine]",0 to 49
13,"CCCCCCC(/C=N/[C@@H](CCCNC(=N)N)C(=O)O)=C\c1ccccc1 [Example 13, (E)-N^2-[(2E)-2-benzylideneoctylidene]-L-arginine]",0 to 49
14,"N=C(N)NCCC[C@H](/N=C/C=C/c1ccco1)C(=O)O [Example 14, (E)-N^2-[(2E)-3-(furan-2-yl)prop-2-en-1-ylidene]-L-arginine]",70 to 100
15,"CC(/C=N/[C@@H](CCCNC(=N)N)C(=O)O)=C\c1ccco1 [Example 15, (E)-N^2-[(2E)-3-(furan-2-yl)-2-methylprop-2-en-1-ylidene]-L-arginine]",50 to 69
16,"CCC(/C=N/[C@@H](CCCNC(=N)N)C(=O)O)=C\c1ccco1 [Example 16, (E)-N^2-{(2E)-2-[(furan-2-yl)methylidene]butylidene}-L-arginine]",0 to 49
17,"COc1cc(/C=C/C=N/[C@@H](CCCNC(=N)N)C(=O)O)ccc1O [Example 17, (E)-N^2-[(2E)-3-(4-hydroxy-3-methoxyphenyl)prop-2-en-1-ylidene]-L-arginine]",70 to 100
18,"CC(=O)Oc1ccc(/C=C/C=N/[C@@H](CCCNC(=N)N)C(=O)O)cc1 [Example 18, (E)-N^2-{(2E)-3-[4-(acetyloxy)phenyl]prop-2-en-1-ylidene}-L-arginine]",70 to 100
19,"N=C(N)NCCC[C@H](/N=C/C=C/c1ccccc1OC(=O)c1ccccc1)C(=O)O [Example 19, (E)-N^2-{(2E)-3-[2-(benzoyloxy)phenyl]prop-2-en-1-ylidene}-L-arginine]",0 to 49
20,"N=C(N)NCCC[C@H](/N=C/C=C/c1ccsc1)C(=O)O [Example 21, (E)-N^2-[(2E)-3-(thiophen-3-yl)prop-2-en-1-ylidene]-L-arginine]",70 to 100
21,"N=C(N)NCCC[C@H](/N=C/C=C/c1nc2ccccc2s1)C(=O)O [Example 22, (E)-N^2-[(2E)-3-(1,3-benzothiazol-2-yl)prop-2-en-1-ylidene]-L-arginine]",70 to 100
22,"N=C(N)NCCC[C@H](/N=C/C=C/c1nccs1)C(=O)O [Example 23, (E)-N^2-[(2E)-3-(1,3-thiazol-2-yl)prop-2-en-1-ylidene]-L-arginine]",50 to 69
23,"Cc1ccc(/C=C/C=N/[C@@H](CCCNC(=N)N)C(=O)O)cc1 [Example 25, (E)-N^2-[(2E)-3-(4-methylphenyl)prop-2-en-1-ylidene]-L-arginine]",70 to 100
